pEC50: −log10 of the molar value.
Molecular target: T1, mitochondrial ATP synthase subunit alpha (α-F1-ATP synthase, ATP5A) (Homo sapiens, UniProt P25705)
T1 construct: gene ATP5F1A; purified recombinant human α-F1-ATP synthase (CusaBio)
Test: DSF Tm increase with purified recombinant α subunit ([…]~[…] CADD522, no Kd); the EC50 is from CETSA in MDA-MB-231 lysate; immunocaptured ATP synthase also inhibited at […]~[…]
Type: binding

T1 sequence (P25705 44-553): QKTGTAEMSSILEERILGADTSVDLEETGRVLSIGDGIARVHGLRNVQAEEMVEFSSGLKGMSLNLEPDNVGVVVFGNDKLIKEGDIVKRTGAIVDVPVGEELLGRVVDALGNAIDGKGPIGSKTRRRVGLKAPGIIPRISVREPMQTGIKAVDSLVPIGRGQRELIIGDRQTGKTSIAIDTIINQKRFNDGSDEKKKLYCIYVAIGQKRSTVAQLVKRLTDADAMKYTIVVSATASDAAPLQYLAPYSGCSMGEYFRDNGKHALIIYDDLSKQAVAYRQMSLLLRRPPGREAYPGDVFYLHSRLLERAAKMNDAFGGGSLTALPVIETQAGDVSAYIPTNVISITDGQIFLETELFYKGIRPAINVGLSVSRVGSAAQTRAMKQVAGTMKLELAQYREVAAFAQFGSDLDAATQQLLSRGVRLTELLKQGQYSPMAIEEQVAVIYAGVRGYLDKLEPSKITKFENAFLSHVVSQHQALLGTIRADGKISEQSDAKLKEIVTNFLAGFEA

## O=C(O)C1C2C=CC(C2)C1C(=O)Nc1ccc(Cl)c(Cl)c1 (stereo not shown) [CADD522]
  pEC50: > 6.85
